Test results as given in patent publication US6737383B1, “Herbicidal oxadiazolidines” (priority 1999, dated 2004).

Experiments:
purple nutsedge = assay: Test B pre/postemergence purple nutsedge; format: in vivo, Cyperus rotundus; settings: for Plant response rating, Nutsedge: scale of 0 to 10 where 0 is no effect and 10 is complete control
In short: (§1)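 Herbicidal effect was estimated by eye on a ten-point control scale after plants spent twelve to sixteen days in a greenhouse following soil or foliar treatment. Foliar sprays targeted plants at one to four leaves; all doses were formulated in a non-phytotoxic solvent with surfactant.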

rape = assay: Test B pre/postemergence rape; format: in vivo, Brassica napus; settings: for Plant response rating, Rape: scale of 0 to 10 where 0 is no effect and 10 is complete control
In short: as §1

bedstraw = assay: Test B pre/postemergence bedstraw; format: in vivo, Galium aparine; settings: Preemergence, Rate 250 g/ha; scale 0 to 10, 0 is no effect, 10 is complete control
In short: as §1

blackgrass = assay: Test B pre/postemergence blackgrass; format: in vivo, Alopecurus myosuroides
In short: as §1

surinam grass = assay: Test B pre/postemergence surinam grass; format: in vivo, Brachiaria decumbens
In short: as §1

velvetleaf = assay: Test B pre/postemergence velvetleaf; format: in vivo, Abutilon theophrasti; settings: for Plant response rating, Velvetleaf: scale of 0 to 10 where 0 is no effect and 10 is complete control
In short: as §1

bamyardgrass = assay: Test B flood test barnyardgrass; format: in vivo, Echinochloa crus-galli
In short: (§2)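 Plants were grown to the 2-leaf stage before treatment with test chemical, then held in a greenhouse for twelve to sixteen days. Injury was visually rated against untreated controls on a 0–10 scale, where 0 is no effect and 10 is complete control.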

corn = assay: Test B pre/postemergence corn; format: in vivo, Zea mays
In short: as §1

morningglory = assay: Test B pre/postemergence morningglory; format: in vivo, Ipomoea hederacea; settings: for Plant response rating, Morningglory: scale of 0 to 10 where 0 is no effect and 10 is complete control
In short: as §1

sugar beet = assay: Test B pre/postemergence sugar beet; format: in vivo, Beta vulgaris; settings: for Plant response rating, Sugarbeets: scale of 0 to 10 where 0 is no effect and 10 is complete control
In short: as §1

duck salad = assay: Test B flood test duck salad; format: in vivo, Heteranthera limosa
In short: as §2

giant foxtail = assay: Test B pre/postemergence giant foxtail; format: in vivo, Setaria faberii
In short: as §1

pigweed = assay: Test B pre/postemergence pigweed; format: in vivo, Amaranthus retroflexus; settings: for Plant response rating, Redroot pigweed: scale of 0 to 10 where 0 is no effect and 10 is complete control
In short: as §1

smallflower flatsedge = assay: Test B flood test smallflower flatsedge; format: in vivo, Cyperus difformis
In short: as §2

rice = assay: Test B flood test rice; format: in vivo, Oryza sativa
In short: as §2

soybean = assay: Test B pre/postemergence soybean; format: in vivo, Glycine max; settings: for Plant response rating, Soybean: scale of 0 to 10 where 0 is no effect and 10 is complete control
In short: as §1

[1] = Postemergence, Rate 250 g/ha, scale 0 to 10
[2] = Preemergence, Rate 250 g/ha, scale 0 to 10, 0 is no effect, 10 is complete control
[3] = Preemergence, Rate 500 g/ha, scale 0 to 10, 0 is no effect, 10 is complete control
[4] = Rate 62 g/ha, Postemergence, scale 0 to 10 (0 no effect, 10 complete control)
[5] = Rate 125 g/ha, Postemergence, scale 0 to 10, 0 is no effect, 10 is complete control
[6] = Postemergence, Rate 500 g/ha, scale of 0 to 10 where 0 is no effect and 10 is complete control
[7] = Preemergence, Rate 62 g/ha, scale of 0 to 10 where 0 is no effect and 10 is complete control
[8] = Preemergence, Rate 125 g/ha, scale of 0 to 10 where 0 is no effect and 10 is complete control
[9] = Rate 62 g/ha, flood test species, Pre-emergence, visual evaluation after twelve to sixteen days
[10] = Rate 125 g/ha, under heading Pre-emergence, flood test species, visual evaluation after twelve to sixteen days
[11] = Rate 250 g/ha, Pre-emergence (flood test species), scale 0 to 10, 0 is no effect, 10 is complete control
[12] = Rate 500 g/ha, Pre-emergence, flood test species, scale 0 to 10 (0 no effect, 10 complete control)

CC(C)N(C(=O)n1oc(=O)n(CCC[Si](C)(C)C)c1=O)c1ccc(F)cc1 [Compound 461]
3: Blackgrass plant response rating (blackgrass; [6]) | Morningglory plant response rating (morningglory; [4]) | Giant foxtail plant response rating (giant foxtail; [3]) | Soybean plant response rating (soybean; [1]) | Soybean plant response rating (soybean; [5])
7: Morningglory plant response rating (morningglory; [1]) | Morningglory plant response rating (morningglory; [5])
2: Soybean plant response rating (soybean; [4])
0: Nutsedge plant response rating (purple nutsedge; [1]) | Plant response rating, Nutsedge (purple nutsedge; Preemergence, Rate 62 g/ha) | Plant response rating, Nutsedge (purple nutsedge; Preemergence, Rate 125 g/ha) | Nutsedge plant response rating (purple nutsedge; [2]) | Nutsedge plant response rating (purple nutsedge; [3]) | Nutsedge plant response rating (purple nutsedge; [4]) | Nutsedge plant response rating (purple nutsedge; [5]) | Rape plant response rating (rape; [1]) | Plant response rating, Rape (rape; Preemergence, Rate 62 g/ha) | Plant response rating, Rape (rape; Preemergence, Rate 125 g/ha) | Rape plant response rating (rape; [2]) | Rape plant response rating (rape; [3]) | Rape plant response rating (rape; [4]) | Rape plant response rating (rape; [5]) | Bedstraw plant response rating (bedstraw) | Blackgrass plant response rating (blackgrass; [1]) | Plant response rating, Blackgrass (blackgrass; [7]) | Plant response rating, Blackgrass (blackgrass; [8]) | Blackgrass plant response rating (blackgrass; [2]) | Blackgrass plant response rating (blackgrass; [3]) | Blackgrass plant response rating (blackgrass; [4]) | Blackgrass plant response rating (blackgrass; [5]) | B. signalgrass plant response rating (surinam grass; Postemergence, Rate 250 g/ha, scale 0 to 10, 0 no effect, 10 complete control) | B. signalgrass plant response rating (surinam grass; [6]) | Plant response rating, B. signalgrass (surinam grass; [7]) | Plant response rating, B. signalgrass (surinam grass; [8]) | B. signalgrass plant response rating (surinam grass; [2]) | B. signalgrass plant response rating (surinam grass; [3]) | B. signalgrass plant response rating (surinam grass; [4]) | B. signalgrass plant response rating (surinam grass; [5]) | Velvetleaf plant response rating (velvetleaf; [1]) | Plant response rating, Velvetleaf (velvetleaf; Preemergence, Rate 62 g/ha) | Plant response rating, Velvetleaf (velvetleaf; Preemergence, Rate 125 g/ha) | Velvetleaf plant response rating (velvetleaf; [2]) | Velvetleaf plant response rating (velvetleaf; [3]) | Velvetleaf plant response rating (velvetleaf; [4]) | Velvetleaf plant response rating (velvetleaf; [5]) | Plant response rating, Barnyardgrass (0 to 10 scale, 0 is no effect, 10 is complete control) (bamyardgrass; [9]) | Barnyardgrass plant response rating (0 to 10 scale, 0 is no effect, 10 is complete control) (bamyardgrass; [10]) | Barnyardgrass plant response rating (bamyardgrass; [11]) | Barnyardgrass plant response rating (bamyardgrass; [12]) | Corn plant response rating (corn; [1]) | Corn plant response rating (corn; [6]) | Plant response rating, Corn (corn; [7]) | Plant response rating, Corn (corn; [8]) | Corn plant response rating (corn; [2]) | Corn plant response rating (corn; [3]) | Corn plant response rating (corn; [4]) | Corn plant response rating (corn; [5]) | Plant response rating, Morningglory (morningglory; Preemergence, Rate 62 g/ha) | Plant response rating, Morningglory (morningglory; Preemergence, Rate 125 g/ha) | Morningglory plant response rating (morningglory; [2]) | Morningglory plant response rating (morningglory; [3]) | Sugarbeets plant response rating (sugar beet; [1]) | Plant response rating, Sugarbeets (sugar beet; Preemergence, Rate 62 g/ha) | Plant response rating, Sugarbeets (sugar beet; Preemergence, Rate 125 g/ha) | Sugarbeets plant response rating (sugar beet; [2]) | Sugarbeets plant response rating (sugar beet; [3]) | Sugarbeets plant response rating (sugar beet; [4]) | Sugarbeets plant response rating (sugar beet; [5]) | Plant response rating, Ducksalad (0 to 10 scale, 0 is no effect, 10 is complete control) (duck salad; [9]) | Ducksalad plant response rating (0 to 10 scale, 0 is no effect, 10 is complete control) (duck salad; [10]) | Ducksalad plant response rating (duck salad; [11]) | Ducksalad plant response rating (duck salad; [12]) | Giant foxtail plant response rating (giant foxtail; [1]) | Giant foxtail plant response rating (giant foxtail; [6]) | Plant response rating, Giant foxtail (giant foxtail; [7]) | Plant response rating, Giant foxtail (giant foxtail; [8]) | Giant foxtail plant response rating (giant foxtail; [2]) | Giant foxtail plant response rating (giant foxtail; [4]) | Giant foxtail plant response rating (giant foxtail; [5]) | Redroot pigweed plant response rating (pigweed; [1]) | Plant response rating, Redroot pigweed (pigweed; Preemergence, Rate 62 g/ha) | Plant response rating, Redroot pigweed (pigweed; Preemergence, Rate 125 g/ha) | Redroot pigweed plant response rating (pigweed; [2]) | Redroot pigweed plant response rating (pigweed; [3]) | Redroot pigweed plant response rating (pigweed; [4]) | Redroot pigweed plant response rating (pigweed; [5]) | Plant response rating, S. Flatsedge (0 to 10 scale, 0 is no effect, 10 is complete control) (smallflower flatsedge; [9]) | S. Flatsedge plant response rating (0 to 10 scale, 0 is no effect, 10 is complete control) (smallflower flatsedge; [10]) | S. Flatsedge plant response rating (smallflower flatsedge; [11]) | S. Flatsedge plant response rating (smallflower flatsedge; [12]) | Plant response rating, Rice (0 to 10 scale, 0 is no effect, 10 is complete control) (rice; [9]) | Rice plant response rating (0 to 10 scale, 0 is no effect, 10 is complete control) (rice; [10]) | Rice plant response rating (rice; [11]) | Rice plant response rating (rice; [12]) | Plant response rating, Soybean (soybean; Preemergence, Rate 62 g/ha) | Plant response rating, Soybean (soybean; Preemergence, Rate 125 g/ha) | Soybean plant response rating (soybean; [2]) | Soybean plant response rating (soybean; [3])
